The target in data set [1] is human peroxisome proliferator-activated receptor gamma (PPARγ) (Homo sapiens, UniProt P37231). In words: human peroxisome proliferator-activated receptor gamma (PPARγ) transactivation assay. The class given is cell-based.
Protocol: Cells were maintained by following manufacturer's instruction. Briefly, PPARγ cells were maintained in matrigel-coated tissue culture flasks in DMEM supplemented with 10% dialyzed FBS, 0.1 mM non-essential amino acids, 1 mM sodium pyruvate, 25 mM HEPES, 100 μg/ml of hygromycin B, 500 μg/ml of geneticin, 100 units/ml penicillin and 100 μg/ml streptomycin. […] Assay medium containing DMSO without cells serves as background control.
For data set [2], the target named is T1, hPXR (Homo sapiens (Human), UniProt O75469). Nature of the data set: hPXR transactivation assays (agonistic and antagonistic), HepG2 cells with CYP3A4-luciferase reporter. Particulars: 24 h, NA = not active; for IC50: read-out: IC50 (antag), antagonistic assay, combined with 5 μM rifampicin; for EC50: read-out: EC50 (agon), agonistic assay, compound alone.
T1 sequence (O75469 whole entry): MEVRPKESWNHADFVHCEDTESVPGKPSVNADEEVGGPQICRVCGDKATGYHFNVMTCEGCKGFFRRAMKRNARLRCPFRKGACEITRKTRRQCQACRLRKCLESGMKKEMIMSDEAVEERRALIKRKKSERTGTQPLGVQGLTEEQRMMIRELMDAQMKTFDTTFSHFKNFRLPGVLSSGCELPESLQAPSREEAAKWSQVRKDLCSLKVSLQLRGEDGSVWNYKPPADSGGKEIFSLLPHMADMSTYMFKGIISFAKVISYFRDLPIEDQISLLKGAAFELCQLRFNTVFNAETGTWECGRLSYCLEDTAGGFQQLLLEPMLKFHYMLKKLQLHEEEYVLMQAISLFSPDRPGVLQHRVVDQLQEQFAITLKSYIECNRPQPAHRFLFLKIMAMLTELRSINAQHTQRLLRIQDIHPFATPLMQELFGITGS
Protocol: (§1) The hPXR transactivation assays (PXR agonistic and antagonistic assays) were performed in the HepG2 cells stably expressing FLAG-hPXR and CYP3A4-luciferase reporter. […] The luminescence signal was detected using an Envision plate reader (PerkinElmer Life Sciences).
Data set [3] concerns HepG2 cells. Nature of the data set: HepG2 cytotoxicity assay (CellTiter Glo). The data set is classed as cell-based. The note with it: Homo sapiens, HepG2, 72 h, read-out: IC50 (cyto).
Description: The luminescence signal was detected using an Envision plate reader (PerkinElmer Life Sciences).
In data set [4] the target is T1, hPXR.
Protocol: as §1
Data set [5] addresses human Farnesoid X receptor (hFXR) (Homo sapiens, UniProt Q96RI1). In words: human Farnesoid X receptor (hFXR) transactivation assay. The data set is classed as cell-based. Particulars: Anta = compound exhibited antagonism; read-out: FXR (Anta).
Protocol: Cells were maintained by following manufacturer's instruction. Briefly, FXR cells were maintained in DMEM supplemented with 10% dialyzed FBS, 0.1 mM non-essential amino acids, 25 mM HEPES, 100 μg/ml of hygromycin B, 100 μg/ml of zeocin, 100 units/ml penicillin and 100 μg/ml streptomycin.
The target in data set [6] is human retinoid X receptor beta (hRXRβ) (Homo sapiens, UniProt P28702). In words: human retinoid X receptor beta (hRXRβ) transactivation assay. The class given is cell-based. Particulars: for IC50: Anta = compound exhibited antagonism, read-out: RXRβ (Anta).
human retinoid X receptor beta (hRXRβ), sequence (P28702 whole entry, looked up): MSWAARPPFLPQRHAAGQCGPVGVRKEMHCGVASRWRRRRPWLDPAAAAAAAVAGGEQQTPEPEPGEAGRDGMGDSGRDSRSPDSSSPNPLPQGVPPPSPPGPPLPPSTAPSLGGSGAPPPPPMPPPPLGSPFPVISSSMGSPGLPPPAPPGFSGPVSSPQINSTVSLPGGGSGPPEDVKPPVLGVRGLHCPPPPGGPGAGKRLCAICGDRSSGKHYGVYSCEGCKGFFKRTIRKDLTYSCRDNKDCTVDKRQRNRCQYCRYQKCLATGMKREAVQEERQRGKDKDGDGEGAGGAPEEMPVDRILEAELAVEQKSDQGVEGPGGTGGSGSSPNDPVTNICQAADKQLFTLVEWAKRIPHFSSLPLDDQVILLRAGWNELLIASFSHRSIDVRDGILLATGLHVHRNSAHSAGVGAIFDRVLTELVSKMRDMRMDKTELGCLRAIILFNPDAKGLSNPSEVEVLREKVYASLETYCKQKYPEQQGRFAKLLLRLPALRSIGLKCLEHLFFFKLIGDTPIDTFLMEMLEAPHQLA
Protocol: Cells were maintained by following manufacturer's instruction. Briefly, RXRβ cells were maintained in DMEM supplemented with 10% dialyzed FBS, 0.1 mM non-essential amino acids, 25 mM HEPES, 100 μg/ml of hygromycin B, 100 μg/ml of zeocin, 100 units/ml penicillin and 100 μg/ml streptomycin.
The target in data set [7] is human glucocorticoid receptor (hGR) (Homo sapiens, UniProt P04150). Nature of the data set: human glucocorticoid receptor (hGR) transactivation assay. The class given is cell-based. The note with it: Anta = compound exhibited antagonism; read-out: GR (Anta).
human glucocorticoid receptor (hGR), sequence (P04150 whole entry, looked up): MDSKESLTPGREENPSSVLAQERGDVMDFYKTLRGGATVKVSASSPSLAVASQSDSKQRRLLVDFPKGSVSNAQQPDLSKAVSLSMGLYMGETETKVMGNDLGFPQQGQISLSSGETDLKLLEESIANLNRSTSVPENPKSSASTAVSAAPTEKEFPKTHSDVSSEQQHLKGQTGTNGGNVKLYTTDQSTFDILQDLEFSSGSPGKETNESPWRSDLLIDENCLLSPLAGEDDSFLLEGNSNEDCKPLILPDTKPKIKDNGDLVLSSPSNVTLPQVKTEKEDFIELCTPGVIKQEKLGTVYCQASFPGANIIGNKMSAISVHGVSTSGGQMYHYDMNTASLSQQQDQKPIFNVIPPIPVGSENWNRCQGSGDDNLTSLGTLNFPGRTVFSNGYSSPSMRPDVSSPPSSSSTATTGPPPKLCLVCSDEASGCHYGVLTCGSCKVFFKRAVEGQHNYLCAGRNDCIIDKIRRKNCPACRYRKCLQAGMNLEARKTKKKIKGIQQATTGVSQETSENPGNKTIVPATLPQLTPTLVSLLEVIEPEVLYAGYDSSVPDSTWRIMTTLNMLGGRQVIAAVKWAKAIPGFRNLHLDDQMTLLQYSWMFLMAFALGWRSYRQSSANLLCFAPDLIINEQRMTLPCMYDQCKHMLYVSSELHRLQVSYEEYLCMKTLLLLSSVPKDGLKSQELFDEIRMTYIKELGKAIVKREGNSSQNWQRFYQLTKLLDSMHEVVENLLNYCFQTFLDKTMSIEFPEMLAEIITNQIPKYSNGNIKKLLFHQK
Data set [8] has as its target human Liver X receptor beta (hLXRβ) (Homo sapiens, UniProt P55055). In words: human Liver X receptor beta (hLXRβ) transactivation assay. The class given is cell-based. The note with it: Anta = compound exhibited antagonism; read-out: LXRβ (Anta).
Data set [9] deals with human Liver X receptor alpha (hLXRα) (Homo sapiens, UniProt Q13133). Nature of the data set: human Liver X receptor alpha (hLXRα) transactivation assay. The data set is classed as cell-based. The note with it: Anta = compound exhibited antagonism; read-out: LXRα (Anta).
human Liver X receptor alpha (hLXRα), sequence (Q13133 whole entry, looked up): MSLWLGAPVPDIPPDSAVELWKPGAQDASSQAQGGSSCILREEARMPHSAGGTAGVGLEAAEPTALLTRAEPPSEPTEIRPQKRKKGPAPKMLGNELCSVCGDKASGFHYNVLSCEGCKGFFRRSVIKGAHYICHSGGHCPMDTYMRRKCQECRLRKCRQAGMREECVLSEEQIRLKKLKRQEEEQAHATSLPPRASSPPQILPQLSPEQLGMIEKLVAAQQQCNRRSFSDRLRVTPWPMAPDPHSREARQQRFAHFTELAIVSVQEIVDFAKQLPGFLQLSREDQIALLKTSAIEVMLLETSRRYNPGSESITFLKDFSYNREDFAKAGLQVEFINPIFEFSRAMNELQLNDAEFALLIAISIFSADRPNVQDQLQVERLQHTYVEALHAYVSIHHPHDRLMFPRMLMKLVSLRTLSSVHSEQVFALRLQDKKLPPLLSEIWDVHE
The target in data set [10] is human retinoid X receptor alpha (hRXRα) (Homo sapiens, UniProt P19793). In words: human retinoid X receptor alpha (hRXRα) transactivation assay. The data set is classed as cell-based. Particulars: Anta = compound exhibited antagonism; read-out: RXRα (Anta).
human retinoid X receptor alpha (hRXRα), sequence (P19793 whole entry, looked up): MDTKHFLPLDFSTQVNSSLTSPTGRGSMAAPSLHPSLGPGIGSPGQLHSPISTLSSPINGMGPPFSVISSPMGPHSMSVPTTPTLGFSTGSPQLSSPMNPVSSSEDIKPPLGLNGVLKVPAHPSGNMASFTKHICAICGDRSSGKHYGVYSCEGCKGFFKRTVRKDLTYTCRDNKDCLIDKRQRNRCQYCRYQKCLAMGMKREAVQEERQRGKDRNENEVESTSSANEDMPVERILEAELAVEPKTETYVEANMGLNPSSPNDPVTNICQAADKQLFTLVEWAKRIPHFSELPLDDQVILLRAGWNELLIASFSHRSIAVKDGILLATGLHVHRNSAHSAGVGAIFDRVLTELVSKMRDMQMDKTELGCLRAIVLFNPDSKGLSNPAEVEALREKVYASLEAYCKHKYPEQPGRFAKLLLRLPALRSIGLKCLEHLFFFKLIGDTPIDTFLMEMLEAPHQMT
In data set [11] the target is human vitamin D receptor (hVDR) (Homo sapiens, UniProt P11473). In words: human vitamin D receptor (hVDR) transactivation assay. The class given is cell-based.
human vitamin D receptor (hVDR), sequence (P11473 whole entry, looked up): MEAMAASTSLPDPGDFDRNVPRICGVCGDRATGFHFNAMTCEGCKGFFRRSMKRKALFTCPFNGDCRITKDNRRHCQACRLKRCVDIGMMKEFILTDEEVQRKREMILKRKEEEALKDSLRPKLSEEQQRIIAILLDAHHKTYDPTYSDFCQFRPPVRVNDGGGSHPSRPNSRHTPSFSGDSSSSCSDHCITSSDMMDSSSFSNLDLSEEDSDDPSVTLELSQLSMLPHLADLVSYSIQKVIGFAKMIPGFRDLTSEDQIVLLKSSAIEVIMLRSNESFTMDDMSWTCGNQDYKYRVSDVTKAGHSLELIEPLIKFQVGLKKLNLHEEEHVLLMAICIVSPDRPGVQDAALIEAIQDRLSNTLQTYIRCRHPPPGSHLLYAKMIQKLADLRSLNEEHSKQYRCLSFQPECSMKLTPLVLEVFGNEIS
Protocol: Cells were maintained by following manufacturer's instruction. Briefly, VDR cells were maintained in matrigel-coated tissue culture flasks in DMEM supplemented with 10% dialyzed FBS, 0.1 mM non-essential amino acids, 1 mM sodium pyruvate, 25 mM HEPES, 80 μg/ml of hygromycin B, 80 μg/ml of zeocin, 100 units/ml penicillin and 100 μg/ml streptomycin. […] Assay medium containing DMSO without cells serves as background control.
Where [12] appears, read: Anta = compound exhibited antagonism, read-out: PPARγ (Anta).

Read-outs that look alike come from different tables or passages of the source.

human Farnesoid X receptor (hFXR), sequence (Q96RI1 whole entry, looked up): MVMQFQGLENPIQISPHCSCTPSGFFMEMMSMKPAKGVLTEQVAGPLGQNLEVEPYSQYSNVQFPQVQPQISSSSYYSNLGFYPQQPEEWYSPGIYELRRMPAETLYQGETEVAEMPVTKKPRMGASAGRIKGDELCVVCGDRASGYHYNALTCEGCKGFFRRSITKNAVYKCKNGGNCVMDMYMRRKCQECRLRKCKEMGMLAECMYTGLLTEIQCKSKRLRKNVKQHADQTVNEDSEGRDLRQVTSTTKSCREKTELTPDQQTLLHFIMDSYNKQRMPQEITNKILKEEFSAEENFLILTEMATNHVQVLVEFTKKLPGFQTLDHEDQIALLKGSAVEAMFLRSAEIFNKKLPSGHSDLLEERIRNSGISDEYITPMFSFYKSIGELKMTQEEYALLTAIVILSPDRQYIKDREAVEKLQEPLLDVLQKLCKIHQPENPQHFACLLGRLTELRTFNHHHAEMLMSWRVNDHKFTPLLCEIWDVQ
human peroxisome proliferator-activated receptor gamma (PPARγ), sequence (P37231 whole entry, looked up): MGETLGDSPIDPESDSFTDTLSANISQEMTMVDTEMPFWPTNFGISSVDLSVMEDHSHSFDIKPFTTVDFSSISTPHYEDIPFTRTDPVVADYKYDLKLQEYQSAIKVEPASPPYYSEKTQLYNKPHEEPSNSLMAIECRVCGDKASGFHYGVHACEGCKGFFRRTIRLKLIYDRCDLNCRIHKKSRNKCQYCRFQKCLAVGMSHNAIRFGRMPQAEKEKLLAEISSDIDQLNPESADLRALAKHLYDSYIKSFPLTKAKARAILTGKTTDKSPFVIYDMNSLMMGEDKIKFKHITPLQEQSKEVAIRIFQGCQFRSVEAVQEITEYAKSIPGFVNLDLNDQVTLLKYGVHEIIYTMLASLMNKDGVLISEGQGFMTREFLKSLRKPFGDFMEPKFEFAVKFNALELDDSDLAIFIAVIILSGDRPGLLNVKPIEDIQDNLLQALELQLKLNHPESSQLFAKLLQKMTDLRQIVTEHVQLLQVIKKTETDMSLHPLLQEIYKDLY
human Liver X receptor beta (hLXRβ), sequence (P55055 whole entry, looked up): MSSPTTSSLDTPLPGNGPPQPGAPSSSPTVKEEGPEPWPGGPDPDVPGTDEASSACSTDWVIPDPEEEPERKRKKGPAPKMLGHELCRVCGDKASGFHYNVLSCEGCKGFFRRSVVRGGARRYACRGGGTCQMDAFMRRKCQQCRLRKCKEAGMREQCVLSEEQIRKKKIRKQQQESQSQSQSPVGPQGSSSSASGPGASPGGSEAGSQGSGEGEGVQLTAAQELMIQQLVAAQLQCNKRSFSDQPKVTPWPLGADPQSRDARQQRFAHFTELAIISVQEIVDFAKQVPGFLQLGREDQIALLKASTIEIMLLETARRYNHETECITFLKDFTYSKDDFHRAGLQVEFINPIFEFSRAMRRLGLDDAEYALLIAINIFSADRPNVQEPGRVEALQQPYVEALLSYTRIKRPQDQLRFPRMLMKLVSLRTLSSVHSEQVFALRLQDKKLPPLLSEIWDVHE

`O=C(Nc1ccccc1)c1cc([N+](=O)[O-])ccc1Cl` [GW9662, reference compound]: the IC50 in data set [1] (PPARγ antagonistic assay, 100 nM rosiglitazone, read-out: IC50) stood at 0.241 µM.

As for `COc1ccc(C)cc1-n1nnc(S(=O)(=O)c2ccc(C(C)C)cc2)c1C` [LC-2], the IC50 in [2] turned out to be 0.66 µM.

In the case of `COc1ccc(Cl)cc1-n1nnc(S(=O)(=O)c2ccc(C(C)C)cc2)c1C` [LC-3], the IC50 in [2] was found to be 0.52 µM.

Consider `COc1ccc(OC)c(-n2nnc(S(=O)(=O)c3ccc(C(C)C)cc3)c2C)c1` [LC-4], for which the IC50 in [2] is 0.63 µM.

With `COc1cc(Cl)c(Cl)cc1-n1nnc(S(=O)(=O)c2ccc(C(C)(C)C)cc2)c1C` [LC-28, 4-((4-(tert-butyl)phenyl)sulfonyl)-1-(4,5-dichloro-2-methoxyphenyl)-5-methyl-1H-1,2,3-triazole], the IC50 in data set [1] (setting [12]) turned out to be 14.4 µM.

For the compound `CCc1cc(OC)c(-n2nnc(S(=O)(=O)c3ccc(C(C)(C)C)cc3)c2C)cc1Cl` [LC-31, 4-((4-(tert-butyl)phenyl)sulfonyl)-1-(5-chloro-4-ethyl-2-methoxyphenyl)-5-methyl-1H-1,2,3-triazole], in data set [3] (NA = not active), the IC50 came to 14.8 µM. Further, the EC50 in data set [4] was 0.76 µM.

For `COc1cc(C(C)=O)c(Cl)cc1-n1nnc(S(=O)(=O)c2ccc(C(C)(C)C)cc2)c1C` [LC-35, 1-(4-(4-((4-(tert-butyl)phenyl)sulfonyl)-5-methyl-1H-1,2,3-triazol-1-yl)-2-chloro-5-methoxyphenyl)ethan-1-one], in [3] (NA = not active), the IC50 came to 7.2 µM. The EC50 in [4] was 1.3 µM.

`COc1cc(C#N)c(Cl)cc1-n1nnc(S(=O)(=O)c2ccc(C(C)(C)C)cc2)c1C` [LC-36, 4-(4-((4-(tert-butyl)phenyl)sulfonyl)-5-methyl-1H-1,2,3-triazol-1-yl)-2-chloro-5-methoxybenzonitrile]: the EC50 in data set [2] was found to be 2.4 µM.

Regarding `COc1ccc(Cl)cc1-n1nnc(S(=O)(=O)c2ccc(C(C)(C)C)cc2)c1N` [LC-39, 4-((4-(tert-butyl)phenyl)sulfonyl)-1-(5-chloro-2-methoxyphenyl)-1H-1,2,3-triazol-5-amine], the IC50 in [3] (NA = not active) came to 16.1 µM. In addition, the EC50 in [4] was found to be 1 µM.

As to `COc1ccc(C)cc1-n1nnc(Nc2ccc(C(C)(C)C)cc2)c1C` [LC-44, N-(4-(tert-butyl)phenyl)-1-(2-methoxy-5-methylphenyl)-5-methyl-1H-1,2,3-triazol-4-amine], the IC50 in [3] (NA = not active) turned out to be 22.5 µM. This compound also gave an EC50 in data set [4] of 1.2 µM.

With `COc1ccc(Cl)cc1-n1nnc(Nc2ccc(C(C)(C)C)cc2)c1C` [LC-45, N-(4-(tert-butyl)phenyl)-1-(5-chloro-2-methoxyphenyl)-5-methyl-1H-1,2,3-triazol-4-amine], the IC50 in data set [3] (NA = not active) turned out to be 30.7 µM. Moreover, in data set [4], the EC50 is 1.1 µM.

As to `COc1ccc(Cl)cc1-n1nnc(N(C)c2ccc(C(C)(C)C)cc2)c1C` [LC-48, N-(4-(tert-butyl)phenyl)-1-(5-chloro-2-methoxyphenyl)-N,5-dimethyl-1H-1,2,3-triazol-4-amine], the IC50 in data set [3] (NA = not active) is 33.8 µM. Besides, the EC50 in data set [4] came out at 0.7 µM.

As for `COc1ccc(OC)c(-n2nnc(S(=O)(=O)c3ccc(C(C)(C)C)cc3)c2Br)c1` [LC-61, 5-bromo-4-((4-(tert-butyl)phenyl)sulfonyl)-1-(2,5-dimethoxyphenyl)-1H-1,2,3-triazole], the IC50 in data set [1] (setting [12]) is 12.8 µM.

Consider `COc1ccc(Cl)cc1-n1nnc(S(=O)(=O)c2ccc(C(C)(C)C)cc2)c1Br` [LC-62, 5-bromo-4-((4-(tert-butyl)phenyl)sulfonyl)-1-(5-chloro-2-methoxyphenyl)-1H-1,2,3-triazole], for which the IC50 in data set [1] (setting [12]) came to 10.5 µM.

Take `COc1ccc(OC)c(-n2nnc(S(=O)(=O)c3ccc(C(C)(C)C)cc3)c2CCl)c1` [LC-64, 4-((4-(tert-butyl)phenyl)sulfonyl)-5-(chloromethyl)-1-(2,5-dimethoxyphenyl)-1H-1,2,3-triazole]: the IC50 was 6.3 µM in data set [5]; 1.5 µM in data set [1] (setting [12]); 4.1 µM in [6]; 5.6 µM in data set [7]; 4.1 µM in data set [8]; 7.9 µM in data set [3] (NA = not active). For the same compound, the IC50 in data set [9] came out at 6.5 µM; in data set [10], 5.8 µM; in [11], 7.3 µM.

Regarding `COc1ccc(C)cc1-n1nnc(S(=O)(=O)c2ccc(C(C)(C)C)cc2)c1CCl` [LC-65, 4-((4-(tert-butyl)phenyl)sulfonyl)-5-(chloromethyl)-1-(2-methoxy-5-methylphenyl)-1H-1,2,3-triazole], the IC50 in data set [3] (NA = not active) worked out at 7 µM. The compound also yielded an EC50 in data set [4] of 6.1 µM.

With `COC(=O)Cc1c(S(=O)(=O)c2ccc(C(C)(C)C)cc2)nnn1-c1cc(C)ccc1OC` [LC-66, methyl 2-(4-((4-(tert-butyl)phenyl)sulfonyl)-1-(2-methoxy-5-methylphenyl)-1H-1,2,3-triazol-5-yl)acetate], in data set [6] (Ag = compound exhibited agonism, read-out: RXRβ (Ag)), the EC50 was 19.3 µM.

For the compound `COc1ccc(OC)c(-c2ncc(S(=O)(=O)c3ccc(C(C)(C)C)cc3)n2C)c1` [LC-70, 5-((4-(tert-butyl)phenyl)sulfonyl)-2-(2,5-dimethoxyphenyl)-1-methyl-1H-imidazole], the IC50 stood at 14.3 µM in data set [5]; 28.3 µM in [1] (setting [12]); 20.4 µM in data set [7]; 15.3 µM in data set [3] (NA = not active); 16.1 µM in data set [10].

As to `COc1ccc(OC)c(-c2nc(C)c(S(=O)(=O)c3ccc(C(C)(C)C)cc3)[nH]2)c1` [LC-73, 5-((4-(tert-butyl)phenyl)sulfonyl)-2-(2,5-dimethoxyphenyl)-4-methyl-1H-imidazole], in data set [7], the IC50 came to 4.4 µM.

As for `COc1ccc(Cl)cc1-c1nc(C)c(S(=O)(=O)c2ccc(C(C)(C)C)cc2)n1C` [LC-78, 5-((4-(tert-butyl)phenyl)sulfonyl)-2-(5-chloro-2-methoxyphenyl)-1,4-dimethyl-1H-imidazole], the IC50 in data set [3] (NA = not active) was 24.4 µM. Besides, the EC50 in [4] was determined as 1.4 µM.

As to `COc1ccc(O)c(-n2nnc(S(=O)(=O)c3ccc(C(C)(C)C)c(O)c3)c2C)c1` [LC-83, 2-(4-((4-(tert-butyl)-3-hydroxyphenyl)sulfonyl)-5-methyl-1H-1,2,3-triazol-1-yl)-4-methoxyphenol], the EC50 in data set [2] amounted to 5 µM. Further, in [3], the IC50 worked out at 16.2 µM.

In the case of `COc1ccc(OC)c(-n2nnc(S(=O)(=O)c3ccc(C(C)(C)C)cc3O)c2C)c1` [LC-84, 5-(tert-butyl)-2-((1-(2,5-dimethoxyphenyl)-5-methyl-1H-1,2,3-triazol-4-yl)sulfonyl)phenol], the EC50 in data set [2] stood at 3.3 µM. The IC50 in [3] amounted to 20.9 µM.

Consider `Cc1c(S(=O)(=O)c2ccc(C(C)(C)C)cc2)nnn1-c1cc(O)ccc1O` [LC-85, 2-(4-((4-(tert-butyl)phenyl)sulfonyl)-5-methyl-1H-1,2,3-triazol-1-yl)benzene-1,4-diol], for which the IC50 in [2] turned out to be 3.9 µM; in data set [1] (setting [12]), 12.8 µM; in [6], 31 µM.

On to `COc1ccc(O)c(-n2nnc(S(=O)(=O)c3ccc(C(C)(C)C)cc3)c2C)c1` [LC-86, 2-(4-((4-(tert-butyl)phenyl)sulfonyl)-5-methyl-1H-1,2,3-triazol-1-yl)-4-methoxyphenol], for which the IC50 in [2] came out at 0.18 µM; in [5] it was 21.9 µM; in data set [1] (setting [12]), 11.8 µM; in [6] it was 17.9 µM; in data set [7], 21.4 µM; in data set [8], 18.9 µM. Besides, the IC50 amounted to 26.1 µM in [3], 29.8 µM in data set [9], 20.6 µM in [10] and 24.2 µM in data set [11].

Regarding `COc1ccc(O)cc1-n1nnc(S(=O)(=O)c2ccc(C(C)(C)C)cc2)c1C` [LC-87, 3-(4-((4-(tert-butyl)phenyl)sulfonyl)-5-methyl-1H-1,2,3-triazol-1-yl)-4-methoxyphenol], the EC50 in data set [2] turned out to be 12 µM.

Consider `COc1ccc(OC)c(-n2nnc(S(=O)(=O)c3ccc(C(C)(C)C)c(O)c3)c2C)c1` [LC-88, 2-(tert-butyl)-5-((1-(2,5-dimethoxyphenyl)-5-methyl-1H-1,2,3-triazol-4-yl)sulfonyl)phenol], for which the EC50 in [2] came to 1.4 µM. In data set [3], the IC50 is 13 µM.
